Source: ChEMBL document CHEMBL5625187, “A facile and selective derivatization approach on kynurenine-NH2 in daptomycin, leading to the discovery of hexakynomycin to combat multidrug-resistant Gram-positive pathogens especially daptomycin-resistant bacteria” (Eur J Med Chem, 2023)

Legend:
Format in all cases: functional
Staphylococcus aureus [1] = assay: Antibacterial activity against methicillin-susceptible Staphylococcus aureus Newman ATCC 25904 assessed as reduction in microbial growth incubated for 24 hrs by broth microdilution method
Staphylococcus aureus [2] = assay: Antibacterial activity against methicillin-resistant Staphylococcus aureus USA300 assessed as reduction in microbial growth incubated for 24 hrs by broth microdilution method
Staphylococcus aureus [3] = assay: Antibacterial activity against vancomycin-intermediate resistant Staphylococcus aureus Mu 50 assessed as reduction in microbial growth incubated for 24 hrs by broth microdilution method
Enterococcus faecium [4] = assay: Antibacterial activity against glycopeptide-resistant Enterococcus faecium Efm-HS-0649 assessed as reduction in microbial growth incubated for 24 hrs by broth microdilution method
Staphylococcus aureus [5] = assay: Potency index, ratio of daptomycin MIC to test compound MIC for antibacterial activity against methicillin-susceptible Staphylococcus aureus Newman ATCC 25904
Enterococcus faecium [6] = assay: Potency index, ratio of daptomycin MIC to test compound MIC for antibacterial activity against glycopeptide-resistant Enterococcus faecium Efm-HS-0649

Compound	MIC (Staphylococcus aureus [1]) [µg/mL]	MIC (Staphylococcus aureus [2]) [µg/mL]	MIC (Staphylococcus aureus [3]) [µg/mL]	MIC (Enterococcus faecium [4]) [µg/mL]	Ratio (Staphylococcus aureus [5])	Ratio (Enterococcus faecium [6])
CCCCCCCCCC(=O)N[C@@H](Cc1c[nH]c2ccccc12)C(=O)N[C@H](CC(N)=O)C(=O)N[C@@H](CC(=O)O)C(=O)N[C@@H]1C(=O)NCC(=O)N[C@@H](CCCN)C(=O)N[C@@H](CC(=O)O)C(=O)N[C@H](C)C(=O)N[C@@H](CC(=O)O)C(=O)NCC(=O)N[C@H](CO)C(=O)N[C@@H]([C@H](C)CC(=O)O)C(=O)N[C@@H](CC(=O)c2ccccc2NC)C(=O)O[C@@H]1C	1	1	4	4	2	2
CCCCCCCCCC(=O)N[C@@H](Cc1c[nH]c2ccccc12)C(=O)N[C@H](CC(N)=O)C(=O)N[C@@H](CC(=O)O)C(=O)N[C@@H]1C(=O)NCC(=O)N[C@@H](CCCN)C(=O)N[C@@H](CC(=O)O)C(=O)N[C@H](C)C(=O)N[C@@H](CC(=O)O)C(=O)NCC(=O)N[C@H](CO)C(=O)N[C@@H]([C@H](C)CC(=O)O)C(=O)N[C@@H](CC(=O)c2ccccc2NCCCCCCCC)C(=O)O[C@@H]1C (single isomer, unassigned)	1	1	4	0.5	2	2
CCCCCCCCCC(=O)N[C@@H](Cc1c[nH]c2ccccc12)C(=O)N[C@H](CC(N)=O)C(=O)N[C@@H](CC(=O)O)C(=O)N[C@@H]1C(=O)NCC(=O)N[C@@H](CCCN)C(=O)N[C@@H](CC(=O)O)C(=O)N[C@H](C)C(=O)N[C@@H](CC(=O)O)C(=O)NCC(=O)N[C@H](CO)C(=O)N[C@@H]([C@H](C)CC(=O)O)C(=O)N[C@@H](CC(=O)c2ccccc2NCCC[S+](C)CC(O)CC)C(=O)O[C@@H]1C (single isomer, unassigned)	> 128	> 128	> 128	> 128	–	–
CCCCCCCCCC(=O)N[C@@H](Cc1c[nH]c2ccccc12)C(=O)N[C@H](CC(N)=O)C(=O)N[C@@H](CC(=O)O)C(=O)N[C@@H]1C(=O)NCC(=O)N[C@@H](CCCN)C(=O)N[C@@H](CC(=O)O)C(=O)N[C@H](C)C(=O)N[C@@H](CC(=O)O)C(=O)NCC(=O)N[C@H](CO)C(=O)N[C@@H]([C@H](C)CC(=O)O)C(=O)N[C@@H](CC(=O)c2ccccc2NCCCSC)C(=O)O[C@@H]1C (single isomer, unassigned)	1	0.5	4	1	–	–
CCCCCCCCCC(=O)N[C@@H](Cc1c[nH]c2ccccc12)C(=O)N[C@H](CC(N)=O)C(=O)N[C@@H](CC(=O)O)C(=O)N[C@@H]1C(=O)NCC(=O)N[C@@H](CCCN)C(=O)N[C@@H](CC(=O)O)C(=O)N[C@H](C)C(=O)N[C@@H](CC(=O)O)C(=O)NCC(=O)N[C@H](CO)C(=O)N[C@@H]([C@H](C)CC(=O)O)C(=O)N[C@@H](CC(=O)c2ccccc2NCC)C(=O)O[C@@H]1C (single isomer, unassigned)	1	1	4	1	2	2
CCCCCCCCCNc1ccccc1C(=O)C[C@@H]1NC(=O)[C@H]([C@H](C)CC(=O)O)NC(=O)[C@@H](CO)NC(=O)CNC(=O)[C@H](CC(=O)O)NC(=O)[C@@H](C)NC(=O)[C@H](CC(=O)O)NC(=O)[C@H](CCCN)NC(=O)CNC(=O)[C@@H](NC(=O)[C@H](CC(=O)O)NC(=O)[C@@H](CC(N)=O)NC(=O)[C@H](Cc2c[nH]c3ccccc23)NC(=O)CCCCCCCCC)[C@@H](C)OC1=O (single isomer, unassigned)	2	1	4	1	2	2
CCCCCCCCCC(=O)N[C@@H](Cc1c[nH]c2ccccc12)C(=O)N[C@H](CC(N)=O)C(=O)N[C@@H](CC(=O)O)C(=O)N[C@@H]1C(=O)NCC(=O)N[C@@H](CCCN)C(=O)N[C@@H](CC(=O)O)C(=O)N[C@H](C)C(=O)N[C@@H](CC(=O)O)C(=O)NCC(=O)N[C@H](CO)C(=O)N[C@@H]([C@H](C)CC(=O)O)C(=O)N[C@@H](CC(=O)c2ccccc2NCCCCC)C(=O)O[C@@H]1C (single isomer, unassigned)	0.5	0.125	2	0.5	2	2
CCCCCCCCCC(=O)N[C@@H](Cc1c[nH]c2ccccc12)C(=O)N[C@H](CC(N)=O)C(=O)N[C@@H](CC(=O)O)C(=O)N[C@@H]1C(=O)NCC(=O)N[C@@H](CCCN)C(=O)N[C@@H](CC(=O)O)C(=O)N[C@H](C)C(=O)N[C@@H](CC(=O)O)C(=O)NCC(=O)N[C@H](CO)C(=O)N[C@@H]([C@H](C)CC(=O)O)C(=O)N[C@@H](CC(=O)c2ccccc2NCC2CCCCC2)C(=O)O[C@@H]1C (single isomer, unassigned)	1	0.5	4	1	–	–
CCCCCCCCCC(=O)N[C@@H](Cc1c[nH]c2ccccc12)C(=O)N[C@H](CC(N)=O)C(=O)N[C@@H](CC(=O)O)C(=O)N[C@@H]1C(=O)NCC(=O)N[C@@H](CCCN)C(=O)N[C@@H](CC(=O)O)C(=O)N[C@H](C)C(=O)N[C@@H](CC(=O)O)C(=O)NCC(=O)N[C@H](CO)C(=O)N[C@@H]([C@H](C)CC(=O)O)C(=O)N[C@@H](CC(=O)c2ccccc2NCc2ccc3c(c2)CCO3)C(=O)O[C@@H]1C	1	1	4	2	–	–
CCCCCCCCCCNc1ccccc1C(=O)C[C@@H]1NC(=O)[C@H]([C@H](C)CC(=O)O)NC(=O)[C@@H](CO)NC(=O)CNC(=O)[C@H](CC(=O)O)NC(=O)[C@@H](C)NC(=O)[C@H](CC(=O)O)NC(=O)[C@H](CCCN)NC(=O)CNC(=O)[C@@H](NC(=O)[C@H](CC(=O)O)NC(=O)[C@@H](CC(N)=O)NC(=O)[C@H](Cc2c[nH]c3ccccc23)NC(=O)CCCCCCCCC)[C@@H](C)OC1=O (single isomer, unassigned)	2	2	4	2	2	2
CCCCCCCCCC(=O)N[C@@H](Cc1c[nH]c2ccccc12)C(=O)N[C@H](CC(N)=O)C(=O)N[C@@H](CC(=O)O)C(=O)N[C@@H]1C(=O)NCC(=O)N[C@@H](CCCN)C(=O)N[C@@H](CC(=O)O)C(=O)N[C@H](C)C(=O)N[C@@H](CC(=O)O)C(=O)NCC(=O)N[C@H](CO)C(=O)N[C@@H]([C@H](C)CC(=O)O)C(=O)N[C@@H](CC(=O)c2ccccc2NCCCCCCC)C(=O)O[C@@H]1C (single isomer, unassigned)	0.5	0.25	2	0.25	2	2
CCCCCCCCCC(=O)N[C@@H](Cc1c[nH]c2ccccc12)C(=O)N[C@H](CC(N)=O)C(=O)N[C@@H](CC(=O)O)C(=O)N[C@@H]1C(=O)NCC(=O)N[C@@H](CCCN)C(=O)N[C@@H](CC(=O)O)C(=O)N[C@H](C)C(=O)N[C@@H](CC(=O)O)C(=O)NCC(=O)N[C@H](CO)C(=O)N[C@@H]([C@H](C)CC(=O)O)C(=O)N[C@@H](CC(=O)c2ccccc2NCC(=O)O)C(=O)O[C@@H]1C	32	32	128	128	–	–
CCCCCCCCCC(=O)N[C@@H](Cc1c[nH]c2ccccc12)C(=O)N[C@H](CC(N)=O)C(=O)N[C@@H](CC(=O)O)C(=O)N[C@@H]1C(=O)NCC(=O)N[C@@H](CCCN)C(=O)N[C@@H](CC(=O)O)C(=O)N[C@H](C)C(=O)N[C@@H](CC(=O)O)C(=O)NCC(=O)N[C@H](CO)C(=O)N[C@@H]([C@H](C)CC(=O)O)C(=O)N[C@@H](CC(=O)c2ccccc2NCCC[S+](C)[O-])C(=O)O[C@@H]1C (stereo partly specified)	128	128	> 128	128	–	–
CCCCCCCCCC(=O)N[C@@H](Cc1c[nH]c2ccccc12)C(=O)N[C@H](CC(N)=O)C(=O)N[C@@H](CC(=O)O)C(=O)N[C@@H]1C(=O)NCC(=O)N[C@@H](CCCN)C(=O)N[C@@H](CC(=O)O)C(=O)N[C@H](C)C(=O)N[C@@H](CC(=O)O)C(=O)NCC(=O)N[C@H](CO)C(=O)N[C@@H]([C@H](C)CC(=O)O)C(=O)N[C@@H](CC(=O)c2ccccc2NCc2ccccn2)C(=O)O[C@@H]1C	8	4	32	8	8	8
CCCCCCCCCC(=O)N[C@@H](Cc1c[nH]c2ccccc12)C(=O)N[C@H](CC(N)=O)C(=O)N[C@@H](CC(=O)O)C(=O)N[C@@H]1C(=O)NCC(=O)N[C@@H](CCCN)C(=O)N[C@@H](CC(=O)O)C(=O)N[C@H](C)C(=O)N[C@@H](CC(=O)O)C(=O)NCC(=O)N[C@H](CO)C(=O)N[C@@H]([C@H](C)CC(=O)O)C(=O)N[C@@H](CC(=O)c2ccccc2NCCC)C(=O)O[C@@H]1C	1	0.5	4	1	2	2
C#CC[S+](C)CCCNc1ccccc1C(=O)C[C@@H]1NC(=O)[C@H]([C@H](C)CC(=O)O)NC(=O)[C@@H](CO)NC(=O)CNC(=O)[C@H](CC(=O)O)NC(=O)[C@@H](C)NC(=O)[C@H](CC(=O)O)NC(=O)[C@H](CCCN)NC(=O)CNC(=O)[C@@H](NC(=O)[C@H](CC(=O)O)NC(=O)[C@@H](CC(N)=O)NC(=O)[C@H](Cc2c[nH]c3ccccc23)NC(=O)CCCCCCCCC)[C@@H](C)OC1=O (stereo partly specified)	128	128	> 128	128	–	–
CCCCCCCCCC(=O)N[C@@H](Cc1c[nH]c2ccccc12)C(=O)N[C@H](CC(N)=O)C(=O)N[C@@H](CC(=O)O)C(=O)N[C@@H]1C(=O)NCC(=O)N[C@@H](CCCN)C(=O)N[C@@H](CC(=O)O)C(=O)N[C@H](C)C(=O)N[C@@H](CC(=O)O)C(=O)NCC(=O)N[C@H](CO)C(=O)N[C@@H]([C@H](C)CC(=O)O)C(=O)N[C@@H](CC(=O)c2ccccc2NCCC2C(=O)C=CC2=O)C(=O)O[C@@H]1C (single isomer, unassigned)	128	128	> 128	128	–	–
